Test results as given in patent US20210268029A1, “METHODS FOR TREATING CANCER WITH MANUFACTURED T CELLS” (RAPA THERAPEUTICS, LLC, priority 2018, published 2021).

Assays:
Assay type in all cases: cell-based
[1] = tested on: T cells; assay: FoxP3 and TBET intra-cellular expression in T cells cultured ex vivo, day 6 (FIGS. 1A-1B)
Experimental: T cells were cultured ex vivo, as indicated, using various ratios of anti-CD3, anti-CD28 beads to T cells (1:1 or 1:12); the mTOR inhibitor temsirolimus (1 μM); without or with the anti-IL-2 receptor monoclonal antibody daclizumab (5 or 50 μg/ml); and either Th1 polarization cytokines (IFN-alpha; 10,000 IU/ml) or control regulatory T cell polarization (IL-2 plus TGF-β). At day 6 of culture, the T cells were evaluated for intra-cellular expression of the regulatory T cell transcription factor FoxP3 and the Th1 transcription factor TBET. (FIGS. 1A-1B).

[2] = tested on: CD4^+ and CD8^+ T cells; assay: Cytokine secretion potential of cultured T cells by Luminex, day 6 and day 13 (FIGS. 3A-3B)
Experimental: To evaluate this, we tested cytokine secretion potential of the manufactured T cells at the end of cell culture (day 6) and then again one week after ex vivo expansion after maximal co-stimulation (3/28 bead-to-T cell ratio, 3:1) and propagation in media devoid of any inhibitors. In FIGS. 3A-3B, CD4^+ and CD8^+ T cells were purified and cultured for 6-days either with or without a 16-hr interval of pre-incubation prior to co-stimulation (1:1 ratio of 3/28 beads-to-T cells). As indicated, temsirolimus was added at concentrations of either 1.0 or 0.1 μM; all cultures were supplemented with IFN-α (10,000 IU/ml) and daclizumab (50 μg/ml). On day 6 of culture, the resultant T cells were co-stimulated for 24 hr using a 3:1 ratio of 3/28 beads; the supernatant was tested for cytokine content by Luminex assay (results are described as pg per ml of cytokine secreted per million cells per 24 hr). […] N.A, abbreviation indicates not applicable (insufficient T cell yield to perform assay).

[3] = tested on: human CD4^+ and CD8^+ T cells; assay: Western blot of p62, phospho-RAPTOR and BIM after 16-hr pre-incubation (FIGS. 11-13)
Experimental: For FIGS. 11-13, human CD4^+ and CD8^+ T cells were cultured using a 16-hr pre-incubation interval prior to the addition of 3/28 beads at the reduced ratio of 1:3 beads-to-T cells. As indicated in FIGS. 11-13, the various T cell cultures received different methods of mTOR inhibition (rapamycin at 1.0 μM; temsirolimus at 1.0 or 0.1 different conditions of exogenous IL-2 addition, and different conditions relative to addition of the anti-IL-2 receptor monoclonal antibody, daclizumab. After the 16-hr pre-incubation interval, cells were harvested from the T cell cultures, protein was isolated, and p62 (FIG. 11), phospho-RAPTOR (FIG. 12), or BIM (FIG. 13) and the housekeeper gene β-actin were quantified by western blot.

[4] = TREG-permissive culture: bead ratio 1:12, no IFN-α, exogenous IL-2 plus TGF-β
[5] = pre-incubation plus high-dose temsirolimus, compared with other conditions
[6] = temsirolimus 1.0 μM, after 24 hr maximal co-stimulation, with or without overnight pre-incubation

Molecule	FoxP3 expression [1, 4]	expression of TBET ([1]; combination of temsirolimus and anti-IL-2 receptor monoclonal antibody)	FoxP3 expression ([1]; exogenous IL-2 added in combination with IFN-α)	T cell expression of FoxP3 ([1]; temsirolimus 1.0 μM with IFN-α, relative to day 0 input T cells)	day 13 T cell IFN-γ secretion [2, 5]	day 13 T cell TNF-α secretion [2, 5]	day 6 T cell cytokine secretion potential ([2]; temsirolimus 0.1 μM)	day 6 T cell IFN-γ secretion [2, 6]	day 6 T cell TNF-α secretion [2, 6]	phospho-RAPTOR ([3]; high-dose temsirolimus compared to low-dose temsirolimus or high-dose rapamycin)	autophagy marker p62 ([3]; pre-incubation, 1:3 beads, daclizumab, rapamycin 1 μM or temsirolimus 1.0 or 0.1)	TBET expression ([1]; 50 μg/ml daclizumab compared with 5 μg/ml)	FoxP3 expression ([1]; IL-2 receptor blockade added to temsirolimus and IFN-α, 50 μg/ml more effective than 5 μg/ml)
CO[C@H]1C[C@@H]2CC[C@@H](C)[C@@](O)(O2)C(=O)C(=O)N2CCCC[C@H]2C(=O)O[C@H]([C@H](C)C[C@@H]2CC[C@@H](OC(=O)C(C)(CO)CO)[C@H](OC)C2)CC(=O)[C@H](C)/C=C(\C)[C@@H](O)[C@@H](OC)C(=O)[C@H](C)C[C@H](C)/C=C/C=C/C=C/1C [temsirolimus]	not effective	increased expression	not effective	reduced	highest	highest	only partially reduced	very low levels	very low levels	lower levels	autophagy could be realized		
daclizumab: anti-IL-2 receptor monoclonal antibody (antibody, chains of the INN, looked up, V domains shown) VH: QVQLVQSGAEVKKPGSSVKVSCKASGYTFTSYRMHWVRQAPGQGLEWIGYINPSTGYTEYNQKFKDKATITADESTNTAYMELSSLRSEDTAVYYCARGGGVFDYWGQGTLVTVSS VL: DIQMTQSPSTLSASVGDRVTITCSASSSISYMHWYQQKPGKAPKLLIYTTSNLASGVPARFSGSGSGTEFTLTISSLQPDDFATYYCHQRSTYPLTFGQGTKVEVK	not effective											higher degree	further reduced
